Data set [1] is described as follows: Toxicity in Beagle dog at 50 to 500 mg/kg, po BID administered via gavage […] for 28 days. Format: organism-based, Canis lupus familiaris. The following applies: in vivo, 672 h, dose 50-500 mg/kg, time 28 day.
The target of data set [2] is T1, CYP1A2 (Homo sapiens, UniProt P05177).
T1 sequence (P05177 whole entry): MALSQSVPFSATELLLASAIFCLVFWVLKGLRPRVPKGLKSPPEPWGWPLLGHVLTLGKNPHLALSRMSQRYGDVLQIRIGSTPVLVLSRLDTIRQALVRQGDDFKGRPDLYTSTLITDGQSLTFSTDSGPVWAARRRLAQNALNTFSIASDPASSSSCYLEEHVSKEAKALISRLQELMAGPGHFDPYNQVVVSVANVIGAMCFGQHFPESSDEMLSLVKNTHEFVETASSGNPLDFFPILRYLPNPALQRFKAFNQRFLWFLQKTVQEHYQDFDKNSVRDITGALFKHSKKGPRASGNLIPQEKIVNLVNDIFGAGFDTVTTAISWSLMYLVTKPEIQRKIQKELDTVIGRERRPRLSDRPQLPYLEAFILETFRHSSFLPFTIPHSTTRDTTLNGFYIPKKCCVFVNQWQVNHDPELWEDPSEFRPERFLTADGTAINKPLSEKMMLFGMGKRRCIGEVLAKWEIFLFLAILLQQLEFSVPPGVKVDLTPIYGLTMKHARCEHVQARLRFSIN
Kind of data set: Inhibition of CYP1A2 (unknown origin) at 10 uM relative to control. It counts as ADME.

Data set [3] in a line: Unbound clearance in Balb/c mouse at 1 mg/kg, iv formulated with 5:60:35 DMA/PEG400/20% SBECD. Format: ADME, organism-based. The settings on record: in vivo.
For data set [4], the target named is T2, Histone-lysine N-methyltransferase EZH1 (Homo sapiens, UniProt Q92800).
T2 sequence (Q92800 whole entry): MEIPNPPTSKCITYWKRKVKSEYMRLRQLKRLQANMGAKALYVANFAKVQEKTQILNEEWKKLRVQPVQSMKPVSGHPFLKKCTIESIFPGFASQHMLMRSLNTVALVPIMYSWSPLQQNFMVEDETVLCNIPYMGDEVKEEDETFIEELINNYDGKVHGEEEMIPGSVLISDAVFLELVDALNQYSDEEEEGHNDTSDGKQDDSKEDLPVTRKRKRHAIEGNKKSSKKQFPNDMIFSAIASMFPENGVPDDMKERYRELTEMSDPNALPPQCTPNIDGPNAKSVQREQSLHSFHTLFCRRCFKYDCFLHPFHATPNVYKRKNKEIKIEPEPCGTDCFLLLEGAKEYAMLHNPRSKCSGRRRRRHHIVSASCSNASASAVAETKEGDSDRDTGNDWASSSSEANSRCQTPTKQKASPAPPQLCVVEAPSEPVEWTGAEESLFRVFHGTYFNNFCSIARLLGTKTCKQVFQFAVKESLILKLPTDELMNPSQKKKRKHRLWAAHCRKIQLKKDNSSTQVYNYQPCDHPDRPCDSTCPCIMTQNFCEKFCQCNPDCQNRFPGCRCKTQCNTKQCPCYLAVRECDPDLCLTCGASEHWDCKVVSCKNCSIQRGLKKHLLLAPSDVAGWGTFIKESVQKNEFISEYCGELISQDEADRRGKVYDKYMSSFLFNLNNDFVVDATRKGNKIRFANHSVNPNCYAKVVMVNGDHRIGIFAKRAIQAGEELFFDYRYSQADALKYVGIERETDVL
Description: Inhibition of EZH1 (unknown origin)

Data set [5] addresses T3, CYP2C8 (Homo sapiens, UniProt P10632).
T3 sequence (P10632 whole entry): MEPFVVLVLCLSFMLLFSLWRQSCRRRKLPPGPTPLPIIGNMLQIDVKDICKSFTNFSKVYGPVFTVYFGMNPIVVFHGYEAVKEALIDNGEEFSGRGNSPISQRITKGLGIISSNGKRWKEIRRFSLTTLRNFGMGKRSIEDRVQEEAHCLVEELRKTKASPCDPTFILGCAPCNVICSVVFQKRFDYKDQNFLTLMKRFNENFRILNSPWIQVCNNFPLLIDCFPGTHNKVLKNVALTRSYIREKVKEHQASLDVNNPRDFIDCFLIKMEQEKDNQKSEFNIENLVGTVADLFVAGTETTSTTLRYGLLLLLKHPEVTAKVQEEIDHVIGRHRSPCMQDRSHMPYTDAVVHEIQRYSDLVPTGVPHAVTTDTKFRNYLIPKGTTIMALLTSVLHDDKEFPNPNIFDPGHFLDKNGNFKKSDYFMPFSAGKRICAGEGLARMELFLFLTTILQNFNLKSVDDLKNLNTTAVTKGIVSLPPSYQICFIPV
Kind of data set: Inhibition of CYP2C8 (unknown origin) at 10 uM relative to control. Format: ADME.

Data set [6] is described as follows: Protein binding in mouse plasma assessed as bound fraction. Format: ADME, cell-free.
The nature of data set [7]: Drug concentration in tumor of CB17 SCID mouse xenografted with human KARPAS-422 cells at 160 mg/kg, po BID administered for 17 days and measured up to 12 hrs post last dose by LC-MS analysis. The following applies: time 17 day, read-out: Ct. It counts as ADME, organism-based, Neoplasm.
Data set [8] has as its target T4, Cytochrome P450 1A2 (Homo sapiens, UniProt P05177).
T4 sequence (P05177 whole entry): T1 sequence (P05177 whole entry)
The experiment in a line: Time dependent inhibition of CYP1A2 (unknown origin). Format: ADME.

A short description of data set [9]: Intrinsic clearance in rat liver microsomes assessed per mg protein. It counts as ADME, Microsome. In general terms: Liver microsomes are vesicles of endoplasmic reticulum, rich in cytochrome P450 enzymes.
Data set [10] can be described thus: Unbound Cmax in Balb/c mouse at 100 mg/kg, po formulated in 0.5 % methyl cellulose maintained at pH 3 to 4. It counts as ADME, organism-based. The settings on record: in vivo, pH 3, 100 mg/kg.
The nature of data set [11]: Volume of distribution at steady state in Sprague-Dawley rat at 1 mg/kg, iv. It counts as ADME, organism-based. The following applies: in vivo, read-out: Vdss.
Data set [12] concerns the target Cytochrome P450 2C9 (Homo sapiens, UniProt P11712). Kind of data set: Time dependent inhibition of CYP2C9 (unknown origin). Format: ADME.
Data set [13] is described as follows: Tmax in Beagle dog at 5 mg/kg, po. Format: ADME, organism-based, Canis lupus familiaris. The settings on record: in vivo.
A short description of data set [14]: Unbound clearance in Beagle dog at 1 mg/kg, iv. The following applies: in vivo. It counts as ADME, organism-based, Canis lupus familiaris.
In data set [15] the target is Cytochrome P450 2D6 (Homo sapiens, UniProt P10635). The experiment in a line: Time dependent inhibition of CYP2D6 (unknown origin). Format: ADME.

For orientation: inhibition means the percentage by which the read-out fell short of the control. A high value points to strong suppression. The IC50 is the point on the concentration scale where inhibition reaches its midpoint. Lower therefore signals higher potency. For orientation: Tmax means the time at which the peak concentration occurs.

Sequence of Cytochrome P450 2D6 (P10635 whole entry): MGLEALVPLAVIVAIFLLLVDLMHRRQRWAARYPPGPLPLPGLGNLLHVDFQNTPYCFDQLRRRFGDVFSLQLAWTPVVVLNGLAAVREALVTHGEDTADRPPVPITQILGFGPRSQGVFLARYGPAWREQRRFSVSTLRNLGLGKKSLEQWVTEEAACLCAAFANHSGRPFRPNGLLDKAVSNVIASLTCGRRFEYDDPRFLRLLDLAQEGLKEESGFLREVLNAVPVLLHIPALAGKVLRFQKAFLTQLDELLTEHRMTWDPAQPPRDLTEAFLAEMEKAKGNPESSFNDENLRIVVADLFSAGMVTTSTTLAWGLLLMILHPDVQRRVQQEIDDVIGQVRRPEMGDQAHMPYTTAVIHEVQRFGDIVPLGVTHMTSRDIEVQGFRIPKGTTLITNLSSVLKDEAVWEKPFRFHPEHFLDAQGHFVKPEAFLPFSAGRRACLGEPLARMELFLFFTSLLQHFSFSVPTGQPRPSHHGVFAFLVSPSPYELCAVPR
Sequence of Cytochrome P450 2C9 (P11712 whole entry): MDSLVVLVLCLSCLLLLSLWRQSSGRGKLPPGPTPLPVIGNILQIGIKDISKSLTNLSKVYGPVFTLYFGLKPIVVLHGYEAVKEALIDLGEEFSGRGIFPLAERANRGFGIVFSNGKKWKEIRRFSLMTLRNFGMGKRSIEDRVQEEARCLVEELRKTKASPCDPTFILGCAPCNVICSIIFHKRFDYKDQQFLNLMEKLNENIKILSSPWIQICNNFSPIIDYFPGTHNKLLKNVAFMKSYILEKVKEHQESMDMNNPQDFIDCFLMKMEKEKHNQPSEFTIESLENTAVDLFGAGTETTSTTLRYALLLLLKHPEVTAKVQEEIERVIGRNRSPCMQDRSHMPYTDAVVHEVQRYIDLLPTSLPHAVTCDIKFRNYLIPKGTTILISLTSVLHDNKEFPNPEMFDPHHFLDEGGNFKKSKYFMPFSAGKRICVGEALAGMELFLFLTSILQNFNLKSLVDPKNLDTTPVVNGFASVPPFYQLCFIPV

As for `COc1cc(C)[nH]c(=O)c1CNC(=O)c1c(C)n([C@H](C)C2CCN(CC(F)(F)F)CC2)c2ccccc12` [CPI-1205], in data set [1], the Activity result is “Non-Toxic”. The inhibition at 10 µM in [2] stood at 15%; in [5], 41%. Further, the CL free stood at 1715 mL/min/kg in [3] and 242 mL/min/kg in data set [14]. Further, the IC50 in data set [4] was 52 nM. For the same compound, the PPB in data set [6] stood at 97.9%. Moreover, the concentration at 408 h in data set [7] stood at 5290 ng/g. Besides, the TDI entry in data set [8], in data set [12] and in [15] was “Not Active” in each case. For the same compound, in data set [9], the CLH was determined as 99.6 µL/min. Besides, in data set [10], the fCmax was 1.41 µM. In addition, the Vd in [11] came out at 2.22 L/kg. In addition, the time of peak concentration (Tmax) in data set [13] turned out to be 1.67 h.
